Measured values taken from patent publication US11439609B2, “Nitric oxide releasing PLGA microspheres for biomedical applications” (THE REGENTS OF THE UNIVERSITY OF MICHIGAN, priority 2015, dated 2022).

Experiment: Morphology and size distribution by SEM
Type: physicochemical
Conditions: cryomilled at −196° C.
Experimental: For morphology and size distribution analysis, microspheres were coated with 40 nm of gold using a sputter coater (Desk II, Denton Vacuum Inc., Hill, N.J., USA) for 120 seconds. Secondary electron micrographs were taken by a Hitachi S-3200N Variable Pressure SEM (Hitachi High-Technologies Corp., Tokyo, Japan). The applied accelerating voltage was 15 kV. For size distribution measurements, the diameter of at least 500 particles was measured and analyzed with ImageJ software (see, e.g., C. A. Schneider, W. S. Rasband, K. W. Eliceiri, NIH Image to ImageJ: 25 years of image analysis, Nature Methods. 9 (2012) 671-675). For cross-sectional images, the microspheres were cut using a razor-blade on a glass slide prior to coating with gold for the SEM analysis.

- particle dimensions after micronization: < 25 μm
SMILES: CC(=O)N[C@@H](C(=O)O)C(C)(C)SN=O [SNAP, S-nitroso-N-acetyl-D-penicillamine]
